Where a SMILES comes first, the peptide text is derived from it. [ ]: non-standard residue; d: D form. dPhe(4-Cl) = N[C@H](Cc1ccc(Cl)cc1)C(=O)O; d2Nal = N[C@H](Cc1ccc2ccccc2c1)C(=O)O; dCit = NC(=O)NCCC[C@@H](N)C(=O)O; d3Pal = N[C@H](Cc1cccnc1)C(=O)O; pGlu = O=C1CC[C@@H](C(=O)O)N1
Assays:
rat GnRHR [1] = target: T1, rat GnRHR (Rattus norvegicus, UniProt P30969); assay: Inhibition of GnRH-1-induced IP production in GH3 cells expressing rat GnRHR; type: cell-based
T1 construct: expressed in transfected cells; host or cells: GH3 cells, retroviral infection
T1 sequence (P30969 1-327): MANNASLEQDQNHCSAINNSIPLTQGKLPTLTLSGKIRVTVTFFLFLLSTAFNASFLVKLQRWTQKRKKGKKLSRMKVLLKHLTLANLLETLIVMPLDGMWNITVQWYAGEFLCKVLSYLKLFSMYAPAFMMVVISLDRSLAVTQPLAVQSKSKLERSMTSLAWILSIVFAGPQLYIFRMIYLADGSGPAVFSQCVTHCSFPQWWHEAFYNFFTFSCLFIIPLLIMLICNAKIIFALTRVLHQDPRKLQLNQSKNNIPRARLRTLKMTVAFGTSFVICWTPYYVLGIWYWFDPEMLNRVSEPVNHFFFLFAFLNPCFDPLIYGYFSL
Experimental: (§1) GH3 cell lines were obtained from the Cell Line Bank at the Cancer Research Center, Seoul National University College of Medicine, located in Seoul, Republic of Korea. The GH3 cell lines were infected with retroviruses comprising genes encoding bfGnRHR-1, bfGnRHR-2, and bfGnRHR-3 which are bullfrog GnRH receptors, and rat GnRHR, and cell lines expressing each of these receptors were obtained. The GH3 cells expressing bfGnRHR-1, bfGnRHR-2, bfGnRHR-3, and rat GnRHR were cultured on 12-well plates. After 24 hours, the cells were cultured again for 24 hours in a media containing no inositol, to which H^3-myoinositol was added. The resultant cells were washed with buffer A (140 mM NaCl, 20 mM HEPES, 4 mM KCl, 8 mM D-Glucose, 1 mM MgCl2, 1 mM CaCl2, 1 mg/ml BSA) and then cultured in buffer A containing 10 mM LiCl at 37°C. for 30 minutes. Thereafter, they were treated with GnRH having a suitable concentration, cultured at 37° C. for another 30 minutes, and then the media was eliminated. The cells were treated with 10 mM of ice-cold formic acid to terminate the reaction, and the cell extracts were mixed with Dowex anionic exchange resins. These resins were washed with distilled water, IP was extracted with 1 M ammonium formate/0.1 M formic acid, and cpm (count per minute) was determined.
However, Trptorelix-1 could reduce the production of IP induced by 1 nM GnRH-2, in a concentration-dependent manner (FIG. 6a to FIG. 6c).

Primate GnRH-2 receptor [2] = assay: Inhibition of GnRH-2-induced c-fos-luc luciferase activity in cells expressing Primate GnRH-2 receptor; type: cell-based; details: treated at the same time as GnRH-2
Experimental: (§2) Complimentary DNA (cDNA) for a Primate GnRH-2 receptor was obtained from a CV-1 cell genome. […] Plasmids having Primate GnRH-2 receptors where transfected into CV-1 cells. To assay the activity of the receptor, c-fos-luc where a luciferase gene is fused with a c-fos promoter was co-transfected as a probe gene. After 48 hours from transfection, the cells were treated with GnRH-2 agonists and then the activity of luciferase was assayed (Seong et al., Endocrinology vol 144 2003, 454-466).
In the same manner as in 2-3 above, Primate GnRH-2 receptors were co-transfected along with c-fos-luc reporter genes, and after 48 hours, GnRH-2 and GnRH-2 antagonists were treated thereinto at the same time and then the effect of GnRH-2 antagonists was observed.

bullfrog GnRH receptors = assay: Antagonist effect on IP production in GH3 cells expressing bullfrog GnRH receptors (bfGnRHR-2 and bfGnRHR-3 together); type: cell-based; details: GH3 cells expressing bfGnRHR-2 and bfGnRHR-3, no GnRH-2
Excerpt: In summary, it is concluded that Trptorelix is a very specific antagonist for GnRH-2. GH3 cell lines were obtained from the Cell Line Bank at the Cancer Research Center, Seoul National University College of Medicine, located in Seoul, Republic of Korea. The GH3 cell lines were infected with retroviruses comprising genes encoding […]-2, and bfGnRHR-3 which are bullfrog GnRH receptors, and rat GnRHR, and cell lines expressing each of these receptors were obtained. The GH3 cells expressing […]-3, and rat GnRHR were cultured on 12-well plates. After 24 hours, the cells were cultured again for 24 hours in a media containing no inositol, to which H^3-myoinositol was added. The resultant cells were washed with buffer A (140 mM NaCl, 20 mM HEPES, 4 mM KCl, 8 mM D-Glucose, 1 mM MgCl2, 1 mM CaCl2, 1 mg/ml BSA) and then cultured in buffer A containing 10 mM LiCl at 37°C. for 30 minutes. Thereafter, they were treated with GnRH having a suitable concentration, cultured at 37° C. for another 30 minutes, and then the media was eliminated. The cells were treated with 10 mM of ice-cold formic acid to terminate the reaction, and the cell extracts were mixed with Dowex anionic exchange resins. These resins were washed with distilled water, IP was extracted with 1 M ammonium formate/0.1 M formic acid, and cpm (count per minute) was determined.

bfGnRHR-1 = assay: Inositol phosphate (IP) production in GH3 cells expressing bfGnRHR-1; type: cell-based, bullfrog
Excerpt: The GnRH receptor, a membrane protein connected with the G protein, activates the G protein when activated by a ligand, and the activated G protein activates phospholipase C and thereby the synthesis of inositol phosphate (IP), which is the second transmitter in cells, is increased. Based on this principle, the activity of a receptor can be investigated by measuring the amount of IP within cells. GH3 cell lines were obtained from the Cell Line Bank at the Cancer Research Center, Seoul National University College of Medicine, located in Seoul, Republic of Korea. The GH3 cell lines were infected with retroviruses comprising genes encoding […]-2, and bfGnRHR-3 which are bullfrog GnRH receptors, and rat GnRHR, and cell lines expressing each of these receptors were obtained. The GH3 cells expressing […]-3, and rat GnRHR were cultured on 12-well plates. After 24 hours, the cells were cultured again for 24 hours in a media containing no inositol, to which H^3-myoinositol was added. […] Thereafter, they were treated with GnRH having a suitable concentration, cultured at 37° C. for another 30 minutes, and then the media was eliminated. […] These resins were washed with distilled water, IP was extracted with 1 M ammonium formate/0.1 M formic acid, and cpm (count per minute) was determined. […]

rat GnRHR [3] = target: T1, rat GnRHR; assay: Inositol phosphate (IP) production in GH3 cells expressing rat GnRHR; type: cell-based
Excerpt: The GnRH receptor, a membrane protein connected with the G protein, activates the G protein when activated by a ligand, and the activated G protein activates phospholipase C and thereby the synthesis of inositol phosphate (IP), which is the second transmitter in cells, is increased. Based on this principle, the activity of a receptor can be investigated by measuring the amount of IP within cells. GH3 cell lines were obtained from the Cell Line Bank at the Cancer Research Center, Seoul National University College of Medicine, located in Seoul, Republic of Korea. The GH3 cell lines were infected with retroviruses comprising genes encoding […]-2, and bfGnRHR-3 which are bullfrog GnRH receptors, and rat GnRHR, and cell lines expressing each of these receptors were obtained. The GH3 cells expressing […]-3, and rat GnRHR were cultured on 12-well plates. After 24 hours, the cells were cultured again for 24 hours in a media containing no inositol, to which H^3-myoinositol was added. […] Thereafter, they were treated with GnRH having a suitable concentration, cultured at 37° C. for another 30 minutes, and then the media was eliminated. The cells were treated with 10 mM of ice-cold formic acid to terminate the reaction, and the cell extracts were mixed with Dowex anionic exchange resins. These resins were washed with distilled water, IP was extracted with 1 M ammonium formate/0.1 M formic acid, and cpm (count per minute) was determined. The GH3 cell lines were infected with retroviruses comprising genes encoding […]-2, and bfGnRHR-3 which are bullfrog GnRH receptors, and rat GnRHR, and cell lines expressing each of these receptors were obtained.

Primate GnRH-2 receptor [4] = assay: c-fos-luc luciferase activation in CV-1 cells expressing Primate GnRH-2 receptor; type: cell-based
Experimental: as §2
Of the GnRH-2 receptors, [D-Ala^6]GnRH-2 performed excellently, showing effects about 3 times that of a wild-type ligand, GnRH-2. […] When analogs where the 5th, 7th, and 8th amino acids of [D-Ala^6]GnRH-2 are substituted were used, it was observed that their effects were weaker than [D-Ala^6]GnRH-2, and therefore it can be seen that it is important to maintain His, Trp, and Tyr that are found at the 5th, 7th, and 8th positions of GnRH-2 as they are (FIG. 3b).

[5] = test system: male rat (Sprague Dawley); assay: Serum LH and testosterone after injection into male rat (radioimmunoassay); type: in vivo; details: 10 μg injected
Experimental: Example 3: GnRH-2 Agonist-induced serum LH and testosterone levels [D-Ala^6]GnRH-2 was dissolved in saline at a concentration of 100 μg/ml, and then 10 μg of [D-Ala^6]GnRH-2 was injected into the cervix of a male rat (Sprague Dawley rat having a weight of approximately 100 g). 1, 2, 4, and 8 hours after the injection, serum was obtained from the rat. The concentration of luteinizing hormone and testosterone present in the serum was measured by radioimmunoassay.

TSU-Pri cells = assay: Binding of radiolabeled GnRH to TSU-Pri prostate cancer cells; parameters: species or system human; details: room temperature, 6 hours
Experimental: TSU-Pri, which is one of the prostate cancer cell lines, was cultured along with the radiolabeled I^125GnRH-1 and I^125GnRH-2. […] The radiolabeled GnRH and the cells were cultured at room temperature for 6 hours, and then washed with PBS (phosphate-buffered saline) several times to eliminate the unbound GnRH. Thereafter, the cells were isolated and radioactivity from the cells was measured using a y-counter.

rat GnRHR [6] = target: T1, rat GnRHR; assay: I125-GnRH-2 competitive ligand-receptor binding, membranes of GH3 cells expressing rat GnRHR; details: competition with I125-GnRH-2, 4 °C, 16 hours; read-out: Binding affinity (log IC50 value) (converted)
Experimental: To determine the binding affinity between GnRH and GnRH receptors, GnRH-2 was radiolabeled with I^125. […] After 48 hours, the cells were homogenized to obtain cellular membranes, which were then dissolved in binding buffer (40 mM Tris, pH 7.4, 2 mM MgCl2). 20 μg of membrane proteins were reacted with I^125-GnRH-2 at 4° C. for 16 hours. […] After the reaction was completed, 1^125-GnRH-2 bound to the receptors was filtered using a Brandel harvester, and cpm was measured using a y-counter.

bfGnRHR = assay: IP production in cells expressing bfGnRHR (bullfrog receptors taken together); type: cell-based
Experimental: as §1, with “determined. […]” for “determined.”

[7] = male rat about 100 g, 1, 2, 4, 8 hours

| Structure (SMILES) | IC50 (rat GnRHR [1]) | fold lower effect than Cetrorelix (rat GnRHR [1]; rat GnRH receptors) | effect on luciferase activity induced by GnRH-2 (Primate GnRH-2 receptor [2]) | IP production by the antagonist alone (bullfrog GnRH receptors) | concentration activating bfGnRHR-1, fold lower than GnRH-2 (bfGnRHR-1) | EC50 (rat GnRHR [3]; GH3 cells, 30 min, given as log EC50 (negative values)) | sensitivity compared with GnRH-1 (rat GnRHR [3]; rat GnRHR) | effect, times that of wild-type ligand GnRH-2 (Primate GnRH-2 receptor [4]) | time of testosterone peak point after injection ([5]; male rat) | serum luteinizing hormone (LH) [5, 7] | serum testosterone [5, 7] | effect of unradiolabeled competitor on binding of radiolabeled GnRH-2 to TSU-Pri cells (TSU-Pri cells) | IC50 (rat GnRHR [6]) | fold higher sensitivity than GnRH-1 (bfGnRHR) | fold higher sensitivity than GnRH-2 (bfGnRHR) |
| --- | --- | --- | --- | --- | --- | --- | --- | --- | --- | --- | --- | --- | --- | --- | --- |
| CC(=O)N[C@H](Cc1ccc2ccccc2c1)C(=O)N[C@H](Cc1ccc(Cl)cc1)C(=O)N[C@H](Cc1cccnc1)C(=O)N[C@@H](CO)C(=O)N[C@@H](Cc1ccc(O)cc1)C(=O)N[C@H](CCCNC(N)=O)C(=O)N[C@@H](Cc1c[nH]c2ccccc12)C(=O)N[C@@H](Cc1ccc(O)cc1)C(=O)N1CCC[C@H]1C(=O)N[C@H](C)C(N)=O [Trptorelix-1, Ac-D2Nal-(4Cl)D-Phe-D-3Pal-Ser-Tyr-D-Cit-Trp-Tyr-Pro-DAlaNH2] (Ac-[d2Nal][dPhe(4-Cl)][d3Pal]SY[dCit]WYP[dA]-NH2) | 0.537 nM | ~60 fold | reduced in a concentration-dependent manner | production of IP was not observed | – | – | – | – | – | – | – | – | – | – | – |
| C[C@@H](NC(=O)[C@H](Cc1c[nH]cn1)NC(=O)[C@H](CO)NC(=O)[C@H](Cc1c[nH]c2ccccc12)NC(=O)[C@H](Cc1c[nH]cn1)NC(=O)[C@@H]1CCC(=O)N1)C(=O)N[C@@H](Cc1c[nH]c2ccccc12)C(=O)N[C@@H](Cc1ccc(O)cc1)C(=O)N1CCC[C@H]1C(=O)NCC(N)=O [[D-Ala^6]GnRH-2, p-Glu-His-Trp-Ser-His-D-Ala-Trp-Tyr-Pro-GlyNH2] ([pGlu]HWSH[dA]WYPG-NH2) | – | – | – | – | ~8 fold | 3.24 nM | a sensitivity lower than 10-fold | about 3 times | 4 h | an increase of luteinizing hormone (LH) was observed in only one hour | began to rapidly increase from 2 hours after the injection | reduced in a concentration-dependent manner | 141 nM | 40-20,000 fold | 2.5-10 fold |

Source: US20060135432A1, “Agonists and antagonists of conadotropin-releasing hormone-2, and use thereof” (priority 2002, published 2006)
